Data on 6 compounds can be found in publication PMC10383271.

The structures appear in SMILES notation.

The test system of data set [1] is normal human dermal fibroblasts (NHDF). As to the kind of experiment: MTT assay, viability of NHDF cell culture (ISO 10993 part 5). It counts as cell-based. Particulars: NHDF cell cultures, 24 h incubation; for IC50: Homo sapiens, MTT, mean (± SD), n = 5. On the procedure:
The viability of the normal human dermal fibroblasts (NHDF) cell culture after 24 h incubation with the tested compounds 5a-c-7a-c was assessed by carrying out the MTT assay. This test was performed according to ISO 10993 part 5, Appendix C. For all tested compounds, the IC50 values were calculated using four-parameter logistics. Normal human dermal fibroblasts (NHDF) were purchased from the American Type Culture Collection (ATCC) for cytotoxicity evaluation of the tested compounds. The cells were grown in Dulbecco's Modified Eagle Medium DMEM with […] glucose without phenol red supplemented with 10% FBS and 2 mM L-glutamine, and 25 μg/mL gentamicin. The NHDF cells were cultured under standard conditions (5% CO2, 37 °C, and 95% humidity) with evaluation morphology and confluence at least twice a week. For the assay, the cells were used only in a logarithmic growth phase, and the TrypLE solution was used for 2 min at 37 °C to detach cells. Then, the TrypLE solution was inactivated by adding a culture medium, and the suspension of cells was collected into a tube and centrifuged for 5 min at 1000 rpm. Then, the supernatant was removed, fresh medium was added, and the pellet was resuspended and calculated using the […] chamber. The suspension of cells was prepared to allow seeding 10,000 cells/well density and incubated for 24 h to regenerate in CO2-incubator. The tested compounds were dissolved in DMSO to a final concentration of 10 mM and stored at -20 °C. Before use, the compound solution was kept at room temperature until thawing, and then, samples with 3 different concentrations of compounds were prepared (100 μM, 50 μM, and 10 μM) for each compound. The tested concentrations of compounds were prepared in a culture medium. […] The evaluation of the cytotoxicity of the newly synthesized compounds was carried out in accordance with the ISO 10,993 part V standard by performing the MTT test. After seeding at a density of 10,000 cells per well and adhering overnight, the NHDF cells were treated with the test compounds for 24 h in a CO2 incubator. The supernatant was then removed, the cells were washed with PBS, a 1mg/mL solution of MTT dissolved in MEM was added, and the cultures were re-incubated for 2 h in a CO2 incubator. The medium was then removed, and for a further 30 min, the formazan crystals were dissolved in 100 μL of isopropanol. The absorbance was measured with a Varioskan Go microplate reader at a wavelength of 570 nm. […] For enzyme assays, the IC50 was calculated according to the procedure provided by the kit manufacturer. The significance was set at p < 0.05. Based on the tests performed, the test power was calculated to be greater than 80%.
(Tetrazolium assays rely on reduction of a dye to a coloured formazan, in cell work by metabolically active cells.)

Data set [2] has as its target T1, COX-1 (Ovis aries, UniProt P05979).
T1 sequence (P05979 25-600): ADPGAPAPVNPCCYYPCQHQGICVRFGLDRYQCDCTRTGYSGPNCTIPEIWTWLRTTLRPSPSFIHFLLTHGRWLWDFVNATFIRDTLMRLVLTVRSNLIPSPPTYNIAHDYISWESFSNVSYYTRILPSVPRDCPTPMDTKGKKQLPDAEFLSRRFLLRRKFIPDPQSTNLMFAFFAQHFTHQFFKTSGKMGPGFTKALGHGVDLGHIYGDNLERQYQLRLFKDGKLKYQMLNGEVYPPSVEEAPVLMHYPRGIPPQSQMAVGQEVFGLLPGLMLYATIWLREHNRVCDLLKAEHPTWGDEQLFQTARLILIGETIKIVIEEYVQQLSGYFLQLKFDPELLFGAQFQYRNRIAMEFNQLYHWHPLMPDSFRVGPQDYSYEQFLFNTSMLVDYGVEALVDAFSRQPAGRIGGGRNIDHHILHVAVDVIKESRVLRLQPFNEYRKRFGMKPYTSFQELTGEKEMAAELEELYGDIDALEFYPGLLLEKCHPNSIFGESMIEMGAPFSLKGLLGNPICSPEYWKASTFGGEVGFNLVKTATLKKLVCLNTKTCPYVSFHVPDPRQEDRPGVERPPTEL
As to the kind of experiment: COX-1 inhibition, Cayman's COX Colorimetric Inhibitor Screening Assay Kit.

Data set [3] has as its target T2, 15-LOX (Glycine max, UniProt P08170).
T2 sequence (P08170 1-839): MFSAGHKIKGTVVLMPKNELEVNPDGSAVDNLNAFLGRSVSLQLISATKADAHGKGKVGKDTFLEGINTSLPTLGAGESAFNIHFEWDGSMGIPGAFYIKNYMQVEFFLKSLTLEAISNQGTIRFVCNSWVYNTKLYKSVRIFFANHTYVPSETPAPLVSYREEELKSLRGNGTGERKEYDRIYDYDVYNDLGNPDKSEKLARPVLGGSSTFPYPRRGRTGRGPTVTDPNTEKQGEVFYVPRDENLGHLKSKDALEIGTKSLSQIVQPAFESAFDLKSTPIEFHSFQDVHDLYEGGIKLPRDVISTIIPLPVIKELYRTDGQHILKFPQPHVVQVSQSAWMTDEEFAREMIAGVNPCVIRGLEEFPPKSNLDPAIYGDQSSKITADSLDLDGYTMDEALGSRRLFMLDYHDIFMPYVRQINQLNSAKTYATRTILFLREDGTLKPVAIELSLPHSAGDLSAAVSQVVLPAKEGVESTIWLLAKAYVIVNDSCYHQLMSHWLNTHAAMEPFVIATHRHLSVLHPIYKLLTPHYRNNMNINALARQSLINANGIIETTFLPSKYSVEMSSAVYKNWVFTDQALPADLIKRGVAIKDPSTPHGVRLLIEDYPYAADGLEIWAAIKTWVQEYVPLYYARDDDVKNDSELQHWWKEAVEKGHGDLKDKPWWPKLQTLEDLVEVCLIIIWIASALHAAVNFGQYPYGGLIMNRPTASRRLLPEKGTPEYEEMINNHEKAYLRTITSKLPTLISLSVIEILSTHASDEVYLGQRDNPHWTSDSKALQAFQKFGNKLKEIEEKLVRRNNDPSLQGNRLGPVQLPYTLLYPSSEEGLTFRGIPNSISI
As to the kind of experiment: 15-LOX inhibition, Cayman's Lipoxygenase Inhibitor Screening Assay Kit.

Data set [4] addresses T3, COX-2 (Homo sapiens, UniProt P35354).
T3 sequence (P35354 18-604): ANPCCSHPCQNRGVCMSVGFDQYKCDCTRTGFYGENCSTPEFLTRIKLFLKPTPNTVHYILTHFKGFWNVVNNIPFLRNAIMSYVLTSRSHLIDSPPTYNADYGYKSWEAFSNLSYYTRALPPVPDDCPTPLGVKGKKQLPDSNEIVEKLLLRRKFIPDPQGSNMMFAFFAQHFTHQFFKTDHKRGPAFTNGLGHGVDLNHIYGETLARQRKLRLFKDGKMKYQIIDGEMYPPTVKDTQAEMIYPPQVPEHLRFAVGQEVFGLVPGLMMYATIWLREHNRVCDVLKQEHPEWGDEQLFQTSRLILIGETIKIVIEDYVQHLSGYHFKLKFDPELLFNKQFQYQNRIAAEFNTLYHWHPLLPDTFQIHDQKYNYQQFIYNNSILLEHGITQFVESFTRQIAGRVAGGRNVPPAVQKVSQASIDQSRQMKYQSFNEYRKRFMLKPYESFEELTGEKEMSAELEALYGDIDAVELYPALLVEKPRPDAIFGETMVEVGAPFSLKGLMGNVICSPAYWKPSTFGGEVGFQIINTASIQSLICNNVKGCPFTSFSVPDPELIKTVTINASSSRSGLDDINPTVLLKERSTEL
As to the kind of experiment: COX-2 inhibition, Cayman's COX Colorimetric Inhibitor Screening Assay Kit. Particulars: for Selectivity Index (SI): COX-2 IC50/COX-1 IC50.

`CCCCn1c(C)c2c(OCC(=O)N/N=C/c3ccccc3O)nn(C)c(=O)c2c1C` [Compound 6a, 2-(6-butyl-3,5,7-trimethyl-4-oxo-pyrrolo[3,4-d]pyridazin-1-yl)oxy-N-[(Z/E)-(2-hydroxyphenyl)methyleneamino]acetamide] showed a melting point of 225 to 227 °C. Moreover, in data set [1], the 50% inhibitory concentration (IC50) was found to be 88.7 ± 4.1 µM and the “Cell Morphology in Culture” value is “Cells with an elongated shape characteristic of fibroblasts, the granularities were observed in 3–5 fields of view from 10 analyzed fields”. The compound further yielded an IC50 in data set [2] of 89.2 ± 4.1 µM. Also, the half-maximal inhibitory concentration (IC50) in data set [3] is 13.6 ± 0.03 µM. In data set [4], the half-maximal inhibitory concentration (IC50) was found to be 16.4 ± 1.1 µM and the “Selectivity Index (SI)” value was 0.18.

Compound `Cc1c2c(OCC(=O)N/N=C/c3ccccc3O)nn(C)c(=O)c2c(C)n1-c1ccccc1` [Compound 6b, N-[(Z/E)-(2-hydroxyphenyl)methyleneamino]-2-(3,5,7-trimethyl-4-oxo-6-phenyl-pyrrolo[3,4-d]pyridazin-1-yl)oxy-acetamide] returned a melting point of 214 to 217 °C. In data set [1], the IC50 came to 80.7 ± 1.9 µM and the “Cell Morphology in Culture” value is “Cells with an elongated shape characteristic of fibroblasts, the granularities were observed in 3–5 fields of view from 10 analyzed fields”. The half-inhibitory concentration (IC50) in data set [2] was found to be 97.7 ± 6.8 µM. Moreover, 13.7 ± 0.03 µM corresponded to half-maximal inhibition in data set [3] (IC50). Besides, in data set [4], the IC50 amounted to 27.7 ± 2.5 µM and the “Selectivity Index (SI)” value is given as 0.28.

`Cc1c2c(OCC(=O)N/N=C/c3ccccc3O)nn(C)c(=O)c2c(C)n1-c1cccc(Cl)c1` [Compound 6c, 2-[6-(3-chlorophenyl)-3,5,7-trimethyl-4-oxo-pyrrolo[3,4-d]pyridazin-1-yl]oxy-N-[(Z/E)-(2-hydroxyphenyl)methyleneamino]acetamide] registered a melting point of 230 to 232 °C. Also, in data set [1], the concentration for half-maximal inhibition (IC50) came out at 211 ± 9.6 µM and the “Cell Morphology in Culture” value was “Normal morphology of fibroblasts–elongated cells, single granular cells in 1 of 10 assessed fields of view”. The same compound came in with a half-inhibitory concentration (IC50) in data set [2] of 76.8 ± 6 µM. This compound also displayed a half-inhibitory concentration (IC50) in data set [3] of 14.7 ± 0.02 µM. For the same compound, in data set [4], the concentration for half-maximal inhibition (IC50) is 9.8 ± 3.1 µM and the “Selectivity Index (SI)” value is recorded as 0.13.

In the case of `CCCCn1c(C)c2c(OCC(=O)N/N=C/c3ccc(C)cc3)nn(C)c(=O)c2c1C` [Compound 7a, 2-(6-butyl-3,5,7-trimethyl-4-oxo-pyrrolo[3,4-d]pyridazin-1-yl)oxy-N-[(Z/E)-p-tolylmethyleneamino]acetamide], the melting point is 209 to 211 °C. In addition, in data set [1], 116 ± 3.6 µM corresponded to half-maximal inhibition (IC50) and the “Cell Morphology in Culture” value is recorded as “Cells with an elongated shape characteristic of fibroblasts, the granularities were observed in 3–5 fields of view from 10 analyzed fields”. This compound gave a 50% inhibitory concentration (IC50) in data set [2] of 93.8 ± 4.2 µM. In data set [3], this compound showed an IC50 of 15.3 ± 2.1 µM. Also, in data set [4], the IC50 is 16.1 ± 1.8 µM and the “Selectivity Index (SI)” value is 0.17.

As for `Cc1ccc(/C=N/NC(=O)COc2nn(C)c(=O)c3c(C)n(-c4ccccc4)c(C)c23)cc1` [Compound 7b, N-[(Z/E)-p-tolylmethyleneamino]-2-(3,5,7-trimethyl-4-oxo-6-phenyl-pyrrolo[3,4-d]pyridazin-1-yl)oxy-acetamide], the melting point is 271 to 272 °C. In data set [1], the IC50 was 181 ± 8.7 µM and the “Cell Morphology in Culture” value is reported as “Normal morphology of fibroblasts-elongated cells, single granular cells in 1 of 10 assessed fields of view”. Also, in data set [2], the IC50 is 91.5 ± 5.1 µM. Moreover, half-maximal inhibition in data set [3] (IC50) required 13.7 ± 0.07 µM. Besides, in data set [4], the IC50 was found to be 24.5 ± 2.1 µM and the “Selectivity Index (SI)” value was 0.27.

The compound `Cc1ccc(/C=N/NC(=O)COc2nn(C)c(=O)c3c(C)n(-c4cccc(Cl)c4)c(C)c23)cc1` [Compound 7c, 2-[6-(3-chlorophenyl)-3,5,7-trimethyl-4-oxo-pyrrolo[3,4-d]pyridazin-1-yl]oxy-N-[(Z/E)-p-tolylmethyleneamino]acetamide] had a melting point of 248 to 250 °C. Besides, in data set [1], the half-maximal inhibitory concentration (IC50) came out at 81.6 ± 5.1 µM and the “Cell Morphology in Culture” value is reported as “Cells with an elongated shape characteristic of fibroblasts, the granularities were observed in 3–5 fields of view from 10 analyzed fields”. For the same compound, the “effect on COX-1 isoform (in words)” value in data set [2] (enzymatic assay) was “does not affect the COX-1 isoform”. 13.3 ± 0.02 µM corresponded to half-maximal inhibition in data set [3] (IC50). The same compound gave a half-maximal inhibitory concentration (IC50) in data set [4] of 22.7 ± 2.5 µM.

As a reminder, the melting point is the temperature, or range, at which the solid turns liquid. As usually defined, the IC50 is the concentration needed to halve the response being measured.
